Paper PMC10179075 (International Journal of Molecular Sciences, 2023)
Where a chain is given by its changes, count along the chain named. Read-outs that look alike come from different tables or passages of the source.

Tests used:
[1] = target: E. indica EPSPS Pro106Leu (P106L) mutant, recombinant expressed in E. coli (Eleusine indica, UniProt Q95AK0, P107L); assay: biochemical; assay type: binding
Experimental: (§1) Target EPSPS genes with different mutations were amplified through PCR using primers (Supplementary Table S4) and the synthesised cDNA, then cloned into the BamHI and HindIII cleavage sites of the pET-28a expression vector (New England Biolabs Inc., Ipswich, MA, USA). After DNA sequencing, the pET-28a plasmid (Thermo Fisher Scientific Inc., Waltham MA, USA) containing the target genes was transformed into BL21 (DE3) cells (Thermo Fisher Scientific Inc.). Selected clones were cultured in Luria-Bertani medium. Cells containing target genes that had grown to an OD600 of 0.5 were induced with […] IPTG (0487; Amresco LLC, Solon, OH, USA) at 37 °C for 4 h. The cells were then pelleted through centrifugation at 10,000× g for 10 min and resuspended in 50 mM Tris-HCl and 150 mM NaCl, pH 7.4 (buffer A). The suspension was sonicated and centrifuged at 12,000× g for 30 min, the supernatant was filtered through a 0.22 µm membrane and passed through a HiTrap His column (10318950; Cytiva, Global Life Sciences Solutions USA, LLC., Marlborough, MA, USA). Target proteins were eluted with 50 mM Tris-HCl, 150 mM NaCl, 500 mM imidazole, pH 7.4 (buffer B), resolved through SDS-PAGE, and identified through MALDI-TOF mass spectrometry. Target protein concentrations were determined using the Bradford method (500-0001) with Dye Reagent (both from Bio-Rad Laboratories Inc., Hercules, CA, USA).
(§2) To prevent primary amines reducing the biotinylation ratio, the EPSPS and mutations were exchanged with PBS buffer using a PD10 desalting column (17085101; Cytiva, Global Life Sciences Solutions USA, LLC.) as described by the manufacturer. The proteins were then concentrated using an ultrafilter (Merck KGaA, Darmstadt, Germany), then the concentrations were determined, as described above. The proteins were biotinylated using the EZ-Link™ Sulfo-NHS-LC-biotinylation kit (21435; Thermo Fisher Scientific Inc.) as described by the manufacturer. A mixture of protein and sulfo-NHS-LC-biotin at a molar ratio of 1:5 was incubated at 4 °C for 16 h, then free biotin molecules were removed using a PD10 desalting column and biotinylated protein concentrations were measured using the Bradford method.
(§3) We used a ForteBio Octet 96 with high-capacity Super Streptavidin (SSA) biosensors (18-5057; Sartorius Stedim Biotech GmbH, Göttingen, Germany) to study the protein-small molecule binding, and to derive the relevant kinetic data, as well as the affinity constants. The SSA sensors were activated in 50 mM HEPES buffer (pH 7.5) containing 0.02% Tween 20 (v/v) for 10 min, then biotinylated proteins were loaded onto them online for 2 min. Thereafter, the sensors were quenched with 2 μg mL^−1 of biocytin (B1592 Thermo Fisher Scientific Inc.) for 60 s. […] To obtain accurate interaction kinetics, a reference well (containing only buffer) and a reference biosensor were included in the assay for double subtraction analysis.
(§4) Data for protein-small molecule binding studies and curve fitting were analysed using ForteBio Data Analysis Software v. 9.0. Dissociation constants (KD) indicating binding affinity for protein-small molecules were derived by determining Kon and Koff (association and disassociation rate constants, respectively); KD = Koff/Kon.

[2] = target: E. indica EPSPS Pro106Ser (P106S) mutant, recombinant expressed in E. coli (Eleusine indica, UniProt Q95AK0, P107S); assay: biochemical; assay type: binding
Sequence of E. indica EPSPS Pro106Ser (P106S) mutant, recombinant expressed in E. coli (Q95AK0 entry or part of it P107S): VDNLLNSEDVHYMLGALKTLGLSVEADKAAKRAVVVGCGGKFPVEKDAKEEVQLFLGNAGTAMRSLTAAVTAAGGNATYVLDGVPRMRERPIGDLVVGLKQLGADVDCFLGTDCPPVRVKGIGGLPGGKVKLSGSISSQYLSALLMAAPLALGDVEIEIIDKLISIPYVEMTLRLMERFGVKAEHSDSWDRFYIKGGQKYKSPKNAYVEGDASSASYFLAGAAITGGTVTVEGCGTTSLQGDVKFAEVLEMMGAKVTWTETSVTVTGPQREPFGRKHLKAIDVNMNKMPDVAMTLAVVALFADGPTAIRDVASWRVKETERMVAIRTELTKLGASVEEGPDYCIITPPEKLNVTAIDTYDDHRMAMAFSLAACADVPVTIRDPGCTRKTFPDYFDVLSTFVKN
Experimental: as §1, §2, §3, §4

[3] = target: E. indica EPSPS Thr102Ile + Pro106Ser (TIPS) mutant, recombinant expressed in E. coli (Eleusine indica, UniProt Q95AK0, P107S/T103I); assay: biochemical; assay type: binding
Sequence of E. indica EPSPS Thr102Ile + Pro106Ser (TIPS) mutant, recombinant expressed in E. coli (Q95AK0 entry or part of it T103I/P107S): as the sequence (Q95AK0 entry or part of it P107S) above, with T61I counted along it
Experimental: as §1, §2, §3, §4

[4] = test system: E. indica IISS population (homozygous TIPS in EPSPS); assay: Whole-plant dose-response assay, IISS population; assay type: in vivo, Eleusine indica; settings: glyphosate alone, fresh weight at 21 DAT, value ± SE
Experimental: (§5) Plants with homozygous mutations Pro106Ser (P106S), Pro106Leu (P106L), Thr102Ile + Pro106Ser (TIPS), and WT were screened from a population with a similar background, as we previously described. […] Plants with the same confirmed genotype were cultured (bulk in isolation) and the seeds were produced and purified. The purified subpopulations were named SS, LL, IISS, and WT. […] The plants were cultured under greenhouse conditions of day and night temperatures of 30 °C and 20 °C (±2 °C), respectively, with a relative humidity of 60% ± 20%, and a 14-h photoperiod, during which LEDs provided light intensity of 300 μmol m^−2 s^−1. After thinning, eight plants per pot were maintained. […] [18]. Thereafter, P450- (10 mM piperonylbutoxide) and GST-inhibitors (3 mM 4-chloro-7-nitro-1, 2, 3-benzoxadiazole) were sprayed to exclude other non-target-site resistance mechanisms. […] Water and inhibitors were applied through control spraying (Supplementary Tables S1 and S3). The fresh weight of the fresh aboveground tissues was measured at 21 DAT. Whole-plant assays were repeated twice in a completely randomised design.
(§6) Data from the whole-plant assays and emerged seedlings were analysed through nonlinear regression using a log-logistic model: y = y0 + a/[1 + (x/x0)^b] in SigmaPlot 12.0 (Systat Software, San Jose, CA, USA).

[5] = test system: E. indica SS population (homozygous P106S in EPSPS); assay: Whole-plant dose-response assay, SS population; assay type: in vivo, Eleusine indica; settings: glyphosate alone, fresh weight at 21 DAT, value ± SE
Experimental: as §5, §6

[6] = test system: E. indica LL population (homozygous P106L in EPSPS); assay: Whole-plant dose-response assay, LL population; assay type: in vivo, Eleusine indica; settings: glyphosate alone, fresh weight at 21 DAT, value ± SE
Experimental: as §5, §6

wild type (WT) E. indica = assay: Shikimate accumulation assay, WT population; assay type: in vivo, Eleusine indica; settings: 1800 g a.e. ha^−1 (7.1 mM) glyphosate, seven DAT
Experimental: Leaf tissue samples collected on 1, 3, 5, and 7 DAT were finely ground in liquid nitrogen, added to 1.0 mL of 0.25 mol L^−1 cold HCl, and centrifuged at 12,000 rpm for 30 min. Supernatants (0.2 mL) were incubated with 2 mL of 1% periodic acid for 3 h at room temperature. Thereafter, 2 mL of 1 mol L^−1 NaOH and 1.2 mL of 0.1 mol L^−1 glycine were added, then the optical density of 0.2 mL/well was determined in 96-well plates at 380 nm using a Tecan Infinite 200 Pro plate reader (Tecan Group Ltd., Männedorf, Switzerland). The results for all samples were compared with a standard curve of 0.1–400.0 μg shikimate and are expressed as μg of shikimate g^−1 fresh tissue. This experiment was repeated twice.

[7] = target: T1, natural (wild type) E. indica EPSPS (EiEPSPS), recombinant expressed in E. coli (Eleusine indica, UniProt Q95AK0); assay: ForteBio Octet binding kinetics, wild type EPSPS
T1 sequence (Q95AK0 43-445): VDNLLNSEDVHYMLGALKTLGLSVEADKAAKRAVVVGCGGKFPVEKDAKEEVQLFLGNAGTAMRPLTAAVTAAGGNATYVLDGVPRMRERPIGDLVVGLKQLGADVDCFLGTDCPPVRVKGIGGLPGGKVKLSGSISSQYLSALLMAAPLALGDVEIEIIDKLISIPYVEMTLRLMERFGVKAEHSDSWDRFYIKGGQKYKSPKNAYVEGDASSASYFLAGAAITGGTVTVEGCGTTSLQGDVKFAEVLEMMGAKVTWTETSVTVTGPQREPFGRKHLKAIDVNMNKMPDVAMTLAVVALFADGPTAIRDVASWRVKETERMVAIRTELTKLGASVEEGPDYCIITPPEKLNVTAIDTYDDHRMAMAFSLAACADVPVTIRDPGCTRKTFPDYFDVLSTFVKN
Experimental: as §1, with “Target proteins were eluted with 50 mM Tris-HCl, 150 mM NaCl, 500 mM imidazole, pH 7.4 (buffer B), resolved through SDS-PAGE, and identified through MALDI-TOF mass spectrometry.” left out
as §2, with “The proteins were biotinylated using the EZ-Link™ Sulfo-NHS-LC-biotinylation kit (21435; Thermo Fisher Scientific Inc.) as described by the manufacturer.” left out, “method. […]” for “method.”
(§7) Data for protein-small molecule binding studies and curve fitting were analysed using ForteBio Data Analysis Software v. […]

[8] = target: T2, His-tagged recombinant EiEPSPS, Thr102Ile + Pro106Ser (IISS) (Eleusine indica, UniProt Q95AK0, P107S/T103I); assay: EPSPS Michaelis-Menten kinetics, Thr102Ile + Pro106Ser; assay type: biochemical; settings: TIPS mutant vs natural EPSPS
T2 sequence (Q95AK0 43-445 T103I/P107S): T1 sequence (Q95AK0 43-445) with T61I, P65S
Description: (§8) Figure 2 Characteristics of EPSPS with different mutations (WT, P106S, P106L, and TIPS) from purified enzyme extracts of Escherichia coli variants. […] Reactions were detected as phosphate concentrations based on a standard curve (y = 97.049x − 0.4245, R^2 = 0.99). This experiment was repeated twice with three biological replicates.
as §1, with “The suspension was sonicated and centrifuged at 12,000× g for 30 min, the supernatant was filtered through a 0.22 µm membrane and passed through a HiTrap His column (10318950; Cytiva, Global Life Sciences Solutions USA, LLC., Marlborough, MA, USA). Target proteins were eluted with 50 mM Tris-HCl, 150 mM NaCl, 500 mM imidazole, pH 7.4 (buffer B), resolved through SDS-PAGE, and identified through MALDI-TOF mass spectrometry.” left out

[9] = target: T3, His-tagged recombinant EiEPSPS, Pro106Leu (LL) (Eleusine indica, UniProt Q95AK0, P107L); assay: EPSPS Michaelis-Menten kinetics, Pro106Leu; assay type: biochemical; settings: P106L mutant vs natural EPSPS
T3 sequence (Q95AK0 43-445 P107L): T1 sequence (Q95AK0 43-445) with P65L
Description: as §8
as §1, with “The suspension was sonicated and centrifuged at 12,000× g for 30 min, the supernatant was filtered through a 0.22 µm membrane and passed through a HiTrap His column (10318950; Cytiva, Global Life Sciences Solutions USA, LLC., Marlborough, MA, USA). Target proteins were eluted with 50 mM Tris-HCl, 150 mM NaCl, 500 mM imidazole, pH 7.4 (buffer B), resolved through SDS-PAGE, and identified through MALDI-TOF mass spectrometry.” left out

[10] = target: E. indica EPSPS enzymes (WT, P106L, P106S, TIPS); assay: ForteBio Octet binding, range over the EPSPS enzymes; parameters: species or system Eleusine indica
Experimental: (§9) Target EPSPS genes with different mutations were amplified through PCR using primers (Supplementary Table S4) and the synthesised cDNA, then cloned into the BamHI and HindIII cleavage sites of the pET-28a expression vector (New England Biolabs Inc., Ipswich, MA, USA). After DNA sequencing, the pET-28a plasmid (Thermo Fisher Scientific Inc., Waltham MA, USA) containing the target genes was transformed into BL21 (DE3) cells (Thermo Fisher Scientific Inc.). Selected clones were cultured in Luria-Bertani medium. Cells containing target genes that had grown to an OD600 of 0.5 were induced with […] IPTG (0487; Amresco LLC, Solon, OH, USA) at 37 °C for 4 h. […] Target protein concentrations were determined using the Bradford method (500-0001) with Dye Reagent (both from Bio-Rad Laboratories Inc., Hercules, CA, USA).
To prevent primary amines reducing the biotinylation ratio, the EPSPS and mutations were exchanged with PBS buffer using a PD10 desalting column (17085101; Cytiva, Global Life Sciences Solutions USA, LLC.) as described by the manufacturer. The proteins were then concentrated using an ultrafilter (Merck KGaA, Darmstadt, Germany), then the concentrations were determined, as described above. […]
as §7

[11] = target: T4, His-tagged recombinant EiEPSPS, Pro106Ser (SS) (Eleusine indica, UniProt Q95AK0, P107S); assay: EPSPS Michaelis-Menten kinetics, Pro106Ser; assay type: biochemical; settings: P106S mutant vs natural EPSPS
T4 sequence (Q95AK0 43-445 P107S): T1 sequence (Q95AK0 43-445) with P65S
Description: as §8
as §9, with “h. The cells were then pelleted through centrifugation at 10,000× g for 10 min and resuspended in 50 mM Tris-HCl and 150 mM NaCl, pH 7.4 (buffer A).” for “h.”

[12] = pH 7.5, read-out: Kon, association rate constant

Sequence of E. indica EPSPS Pro106Leu (P106L) mutant, recombinant expressed in E. coli (Q95AK0 entry or part of it P107L): as the sequence (Q95AK0 entry or part of it P107S) above, with S65L counted along it

O=C(O)CNCP(=O)(O)O [Glyphosate, glyphosate]
Kd [1]: 28 µM | Kd [2]: 25 µM | Kd [3]: 23 µM | x0, herbicide dose required for 50% plant growth reduction (GR50) [4]: 3272.9 ± 164.1 g a.e. ha^-1 | x0, herbicide dose required for 50% plant growth reduction (GR50) [5]: 540.5 ± 25.6 g a.e. ha^-1 | x0, herbicide dose required for 50% plant growth reduction (GR50) [6]: 707.2 ± 122.1 g a.e. ha^-1 | shikimate accumulation in leaf tissues (wild type (WT) E. indica): 366.4 µg/g | Kd [7]: 58 µM

C=C(OP(=O)(O)O)C(=O)O [PEP, phosphoenolpyruvate]
Kd [1]: 1100 µM | kon [1, 12]: 31.3 M⁻¹ s⁻¹ | Kd [2]: 1200 µM | kon [2, 12]: 31.8 M⁻¹ s⁻¹ | Kd [3]: 2000 µM | kon ([3]; Thr102Ile + Pro106Ser EPSPS, Octet SSA biosensors, HEPES pH 7.5, read-out: Kon, association rate constant): 33 M⁻¹ s⁻¹ | Km (PEP) fold relative to natural EPSPS [8]: 4.1 fold | Km (PEP) fold relative to natural EPSPS [9]: 2.4 fold | Kd [10]: 1100 to 3100 µM | Kd ([7]; Wild type EPSPS, Octet SSA biosensors, HEPES pH 7.5, read-out: KD, dissociation constant (KD = Koff/Kon)): 3100 µM | kon ([7]; Wild type EPSPS, Octet SSA biosensors, HEPES pH 7.5, read-out: Kon, association rate constant): 8 M⁻¹ s⁻¹ | Km (PEP) fold relative to natural EPSPS [11]: 0.7 fold
